The values below come from patent US20240100045A1, “EMULSION COMPOSITION AND USES THEREOF IN THE PREVENTION AND/OR TREATMENT OF SKIN DAMAGE CAUSED BY RADIATION” (TARIAN PHARMA, priority 2021, published 2024).

Read-outs that look alike come from different tables or passages of the source. Marks after values point to notes of the source that are not given here.

The conditions of data set [1]: for saturation in the aqueous solvent phase of the primary formulation: prior to application. On the procedure:
(§1) […] were prepared by adding an excess of drug substance to various solvents and storing the samples in sealed containers for 24 hours at room temperature with continuous stirring.
(§2) The majority of samples were stirred by a magnetic stirrer; however, in the case of viscous samples (e.g for pure glycerine), samples were stirred using a rotary mixer. The speed of the rotary mixer was adjusted to ensure proper mixing of the sample and this generally involved slower rotation speeds.
(§3) The chromatographic conditions are described below:• Column: Sunfire C18 150 mm×4.6 mm, 3.5 μm • Column temperature: 40° C. • Injection volume: […] • Flow rate: 0.8m1/minute • UV Detection: 246 nm
Saturated solutions were prepared, incubated and measured as described in Example 1.

For data set [2] the following is noted: conditions not specified, cited from earlier work.
How the values of data set [3] were obtained:
as §1, §2, §3

In data set [4] the test system is alpha2-adrenergic receptors. Particulars: alpha2 vs alpha1; cited from earlier work.

As to brimonidine tartrate, the “active agent solubilised by the non-volatile mixture compared to the aqueous mixture” value in data set [1] (PG/PEG-400/GLY/PVP (20:10:5:1) vs PG/PEG400/GLY/PVP/water (20:10:5:1:40)) is “approximately 22%”. The “saturation in the aqueous solvent phase of the primary formulation” value in data set [1] (concentration of 1% brimonidine tartrate) is listed as “around 30%”; in data set [1] (concentration of 1.5% brimonidine tartrate) it was roughly 50%. For the same compound, the “Max Solubility % (w/w)” value is recorded as 0.45 % (w/w) in data set [1] (in PG/PEG-400 (20:10)); 0.66 % (w/w) in data set [1] (in PG/PEG-400/GLY (20:10:5)); 0.72 % (w/w) in data set [1] (in PG/PEG-400/GLY/(20:10:5:1)); 3.3 % (w/w) in data set [1] (in PG/PEG-400/GLY/PVP/Water (20:10:5:1:40)); 0.45 % (w/w) in data set [1] (in PG/PEG-400/PVP (20:10:1)); ~0.1**** % (w/w) in data set [2] (in Propylene glycol, literature value (Product Monograph ALPHAGAN)). The “Max Solubility % (w/w)” value in data set [2] (in WATER, literature value) is given as 3.4*** % (w/w); in data set [3] (in ARLASOLVE DMI, 24 hours at room temperature) it was 0.01 % (w/w); in data set [3] (in GLUCAM E10, peak degradation observed after reinjection T + 72 hours), 0.72* % (w/w); in data set [3] (in GLUCAM E20, peak degradation observed after reinjection T + 72 hours) it was 0.88* % (w/w); in data set [3] (in Glycerine (GLY, 20 ml scintillation bottle)), 1.61 % (w/w); in data set [3] (in Hexylene Glycol) it was 0.01 % (w/w). Moreover, the “Max Solubility % (w/w)” value is recorded as 0.06 % (w/w) in data set [3] (in Na Pyrrolidone Carboxylate (Ajidew L50)); 0.10 % (w/w) in data set [3] (in PEG-400); 0.01** % (w/w) in data set [3] (in Propylene Carbonate, peak degradation observed after reinjection T + 24 hours); 0.56 % (w/w) in data set [3] (in Propylene glycol, measured value); 0.05 % (w/w) in data set [3] (in TRANSCUTOL, 24 hours at room temperature); 6.40 % (w/w) in data set [3] (in WATER, measured value). Also, the “solubility in glycerine relative to propylene glycol” value in data set [3] (glycerine vs propylene glycol) is recorded as “twice”. Besides, the “solubility capacity of PG relative to glycerine” value in data set [3] (propylene glycol vs glycerine) came out at 50%.
On to `Brc1c(NC2=NCCN2)ccc2nccnc12` [Brimonidine], for which the “selectivity for alpha2-adrenergic receptors over alpha1-adrenergic receptors” value in data set [4] is 1,000 times.
